Test results taken from publication PMC8963254, “Effects of Lysine N-ζ-Methylation in Ultrashort Tetrabasic Lipopeptides (UTBLPs) on the Potentiation of Rifampicin, Novobiocin, and Niclosamide in Gram-Negative Bacteria” (Antibiotics, 2022).
In brackets after ≈: the same amount, converted by molar mass. Where two headings read alike, the source gives them in different places.

How the values were obtained:
[1] = tested on: S. aureus ATCC 29213; type: cell-based, Staphylococcus aureus; conditions: ATCC 29213, 18 h
Protocol: (§1) The in vitro antibacterial activity of the UTBLPs was assessed against wild-type and clinically isolated bacterial strains. To obtain the MIC of the compounds, the microbroth dilution susceptibility assay was performed according to the Clinical and Laboratory Standards Institute (CLSI, Wayne, PA, USA) guidelines and as previously described. Briefly, the compounds at varying concentrations were incubated with bacterial inoculum (5 × 10^5 CFU/mL final concentration) at 37 °C for 18 h. Growth in the form of turbidity was confirmed using an EMax Plus microplate reader (Molecular Devices, San Jose, CA, USA) at 590 nm.

[2] = tested on: MRSA ATCC 33592; type: cell-based, Staphylococcus aureus; conditions: ATCC 33592, 18 h
Protocol: as §1

[3] = tested on: P. aeruginosa PA259-96196; type: cell-based, Pseudomonas aeruginosa; conditions: for MICUTBLP: UTBLP alone
Protocol: (§2) The synergy of the UTBLPs with various antibiotics was assessed using checkerboard assay as previously described. Briefly, the combination of antibiotic and OMP at varying concentrations were incubated with bacterial inoculum (5 × 10^5 CFU/mL final concentration) at 37 °C for 18 h. Growth in the form of turbidity was confirmed using an EMax Plus microplate reader (Molecular Devices, Union City, CA, USA) at 590 nm. Fractional inhibitory concentration index (FICI) was used to evaluate the interaction between the antibiotic and the OMP. FICI is the sum of the FIC of the antibiotic and the FIC of the OMP. The FIC value is calculated by dividing the MIC of the agents in combination by the MIC of the agent alone. FICI ≤ 0.5 is synergistic, 0.5 < x ≤ 4 is additive, and >4 is antagonistic.

[4] = tested on: P. aeruginosa PA262-101856; type: cell-based, Pseudomonas aeruginosa; conditions: for MICUTBLP: UTBLP alone
Protocol: as §2

[5] = tested on: P. aeruginosa PAO1; type: cell-based, Pseudomonas aeruginosa; conditions: for MICUTBLP: UTBLP alone
Protocol: as §2

[6] = tested on: E. coli ATCC 25922; type: cell-based, Escherichia coli; conditions: ATCC 25922, 18 h
Protocol: as §1

[7] = tested on: P. aeruginosa PAO1; type: cell-based, Pseudomonas aeruginosa; conditions: PAO1, 18 h
Protocol: as §1

[8] = tested on: E. cloacae 118564; type: cell-based, Enterobacter cloacae; conditions: for MICUTBLP: UTBLP alone
Protocol: as §2

[9] = tested on: E. coli 94393; assay: microbe, parasite or virus in culture; type: cell-based, Escherichia coli; conditions: 94393, 18 h
Protocol: as §1

[10] = tested on: E. coli 94474; assay: microbe, parasite or virus in culture; type: cell-based, Escherichia coli; conditions: 94474, 18 h
Protocol: as §1

[11] = tested on: E. coli 94474; type: cell-based, Escherichia coli; conditions: for MICUTBLP: UTBLP alone
Protocol: as §2

[12] = tested on: MRSE 61589; type: cell-based, Staphylococcus epidermidis; conditions: 61589, 18 h
Protocol: as §1

[13] = tested on: MSSE 81388; type: cell-based, Staphylococcus epidermidis; conditions: 18 h
Protocol: as §1

[14] = tested on: A. baumannii ATCC 17978; type: cell-based, Acinetobacter baumannii; conditions: ATCC 17978, 18 h
Protocol: as §1

[15] = tested on: P. aeruginosa PA259-96196; assay: microbe, parasite or virus in culture; type: cell-based, Pseudomonas aeruginosa; conditions: PA259-96196, 18 h
Protocol: as §1

[16] = tested on: P. aeruginosa PA262-101856; assay: microbe, parasite or virus in culture; type: cell-based, Pseudomonas aeruginosa; conditions: PA262-101856, 18 h
Protocol: as §1

[17] = tested on: E. faecalis ATCC 29212; type: cell-based, Enterococcus faecalis
Protocol: as §2

[18] = tested on: E. faecalis ATCC 29212; type: cell-based, Enterococcus faecalis; conditions: ATCC 29212, 18 h
Protocol: as §1

[19] = tested on: MRSE 61589; type: cell-based, Staphylococcus epidermidis
Protocol: as §2

[20] = tested on: MSSE 81388; type: cell-based, Staphylococcus epidermidis
Protocol: as §2

[21] = tested on: A. baumannii AB027; assay: microbe, parasite or virus in culture; type: cell-based, Acinetobacter baumannii; conditions: AB027, 18 h
Protocol: as §1

[22] = tested on: A. baumannii AB92247; assay: microbe, parasite or virus in culture; type: cell-based, Acinetobacter baumannii; conditions: AB92247, 18 h
Protocol: as §1

[23] = UTBLP in combination with novobiocin
[24] = UTBLP in combination with rifampicin
[25] = novobiocin in combination with the UTBLP
[26] = rifampicin in combination with the UTBLP
[27] = UTBLP in combination with chloramphenicol
[28] = chloramphenicol in combination with the UTBLP
[29] = UTBLP alone, plate with chloramphenicol

MIC [1]: 64 µg/mL (≈ 77.6 µM)
MIC [2]: 128 µg/mL (≈ 155 µM)
MICUTBLP ([3]; plate with novobiocin): > 128 µg/mL
MICUTBLP ([3]; plate with rifampicin): > 128 µg/mL
MICUTBLP [MICcombo] [3, 23]: 8 µg/mL
MICUTBLP [MICcombo] [3, 24]: 16 µg/mL
MICantibiotic [MICcombo] [3, 25]: 128 µg/mL
MICantibiotic [MICcombo] [3, 26]: 0.5 µg/mL
MICUTBLP ([4]; plate with novobiocin): 128 µg/mL
MICUTBLP ([4]; plate with rifampicin): 128 µg/mL
MICUTBLP [MICcombo] [4, 23]: 16 µg/mL
MICUTBLP [MICcombo] [4, 24]: 16 µg/mL
MICantibiotic [MICcombo] [4, 25]: 64 µg/mL
MICantibiotic [MICcombo] [4, 26]: 256 µg/mL
MICUTBLP ([5]; plate with chloramphenicol): > 128 µg/mL
MICUTBLP ([5]; plate with niclosamide): > 128 µg/mL
MICUTBLP ([5]; plate with novobiocin): > 128 µg/mL
MICUTBLP ([5]; plate with rifampicin): > 128 µg/mL
MICUTBLP [MICcombo] [5, 27]: 2 µg/mL
MICUTBLP [MICcombo] ([5]; UTBLP in combination with niclosamide): 0.25 µg/mL
MICUTBLP [MICcombo] [5, 23]: 16 µg/mL
MICUTBLP [MICcombo] [5, 24]: 4 µg/mL
MICantibiotic [MICcombo] [5, 28]: 4 µg/mL
MICantibiotic [MICcombo] ([5]; niclosamide in combination with the UTBLP): 1024 µg/mL
MICantibiotic [MICcombo] [5, 25]: 32 µg/mL
MICantibiotic [MICcombo] [5, 26]: 2 µg/mL
MIC [6]: >128 µg/mL
MIC [7]: >128 µg/mL
MICUTBLP ([8]; plate with novobiocin): > 128 µg/mL
MICUTBLP ([8]; plate with rifampicin): > 128 µg/mL
MICUTBLP [MICcombo] [8, 23]: 8 µg/mL
MICUTBLP [MICcombo] [8, 24]: 8 µg/mL
MICantibiotic [MICcombo] [8, 25]: 2 µg/mL
MICantibiotic [MICcombo] [8, 26]: 0.125 µg/mL
MIC [9]: > 128 µg/mL
MIC [10]: > 128 µg/mL
MICUTBLP ([11]; plate with novobiocin): > 128 µg/mL
MICUTBLP ([11]; plate with rifampicin): > 128 µg/mL
MICUTBLP [MICcombo] [11, 23]: 8 µg/mL
MICUTBLP [MICcombo] [11, 24]: 8 µg/mL
MICantibiotic [MICcombo] [11, 25]: 4 µg/mL
MICantibiotic [MICcombo] [11, 26]: 0.125 µg/mL
MIC [12]: 32 µg/mL (≈ 38.8 µM)
MIC [13]: 32 µg/mL (≈ 38.8 µM)
MIC [14]: >128 µg/mL
MIC [15]: > 128 µg/mL
MIC [16]: 128 µg/mL (≈ 155 µM)
MICUTBLP [17, 29]: 128 µg/mL
MICUTBLP [MICcombo] [17, 27]: 16 µg/mL
MICchloramphenicol [MICcombo] [17, 28]: 2 µg/mL
MIC [18]: 128 µg/mL (≈ 155 µM)
MICUTBLP [19, 29]: 32 µg/mL
MICUTBLP [MICcombo] [19, 27]: 16 µg/mL
MICchloramphenicol [MICcombo] [19, 28]: 2 µg/mL
MICUTBLP [20, 29]: 32 µg/mL
MICUTBLP [MICcombo] [20, 27]: 0.25 µg/mL
MICchloramphenicol [MICcombo] [20, 28]: 4 µg/mL
MIC [21]: 128 µg/mL (≈ 155 µM)
MIC [22]: 64 µg/mL (≈ 77.6 µM)
SMILES: CCCCCCCC(=O)N[C@@H](CCCCN)C(=O)NCCCN(CCCNC(=O)[C@H](CCCCN)NC(=O)CCCCCCC)CC(=O)N[C@@H](CCCCN)C(N)=O [UTBLP 1]
Interpretation ([3]; UTBLP + novobiocin): Synergy (FICI ≤ 0.5 is synergistic)
Interpretation ([3]; UTBLP + rifampicin): Synergy (FICI ≤ 0.5 is synergistic)
Interpretation ([4]; UTBLP + novobiocin): Synergy (FICI ≤ 0.5 is synergistic)
Interpretation ([4]; UTBLP + rifampicin): Synergy (FICI ≤ 0.5 is synergistic)
Interpretation ([5]; UTBLP + chloramphenicol): Synergy (FICI ≤ 0.5 is synergistic)
Interpretation ([5]; UTBLP + niclosamide): Additive (0.5 < x ≤ 4 is additive)
Interpretation ([5]; UTBLP + novobiocin): Synergy (FICI ≤ 0.5 is synergistic)
Interpretation ([5]; UTBLP + rifampicin): Synergy (FICI ≤ 0.5 is synergistic)
Interpretation ([8]; UTBLP + novobiocin): Synergy (FICI ≤ 0.5 is synergistic)
Interpretation ([8]; UTBLP + rifampicin): Synergy (FICI ≤ 0.5 is synergistic)
Interpretation ([11]; UTBLP + novobiocin): Synergy (FICI ≤ 0.5 is synergistic)
Interpretation ([11]; UTBLP + rifampicin): Synergy (FICI ≤ 0.5 is synergistic)
Interpretation ([17]; UTBLP + chloramphenicol): Additive (0.5 < x ≤ 4 is additive)
Interpretation ([19]; UTBLP + chloramphenicol): Additive (0.5 < x ≤ 4 is additive)
Interpretation ([20]; UTBLP + chloramphenicol): Additive (0.5 < x ≤ 4 is additive)
